Tested on: Sprague-Dawley rats
Test: Rat EEG assay (wake, REM, non-REM states)
Format: in vivo
Settings: for number of wake and non-REM sleep bouts / wake bout duration: hourly bins, EEG; for wake promotion: male Sprague-Dawley rats, dosed in middle of inactive period, first 6 hours post-dosing; for time spent in REM sleep / time spent in non-REM sleep / time spent in wake: relative to vehicle treated animals, 6 hour recording; for normalized power in the 40-60 Hz range (EEG spectral analysis): wake EEG spectra, shift to higher frequencies
Method: The rat EEG assay was designed to measure electrical signals from the brain as a proxy for in vivo biological activity at the H3 receptor.
Specifically, animals were housed in a temperature-controlled recording room under a 12 hour/12 hour light/dark cycle, with food and water available ad libitum. Eight male Sprague-Dawley rats were implanted with chronic recording devices for continuous recordings of electroencephalograph (EEG) via telemetry (Data Sciences Inc). A repeated measures design was employed in which each rat received eight separate dosings of the compound being tested with a minimum of 3 days between doses. […] EEG data were scored visually in 10 second epochs for wake, REM, and non-REM states. Scored data were analyzed and expressed as time spent in each state per hour. Cumulative time spent in wake, non-REM, and REM states were calculated for the 6 hour recording period. To determine whether any of the pharmacological treatments affected the consolidation of behavioral states, the duration and number of bouts for each state were calculated in hourly bins. A “bout” consisted of a minimum of two consecutive 10-second epochs of a given state and ended with any single state change epoch. The EEG spectra during wake and non-REM sleep were analyzed offline with a fast Fourier transform algorithm (NeuroScore software, Data Sciences Inc) on all epochs without a visually detectable artifact. Wake EEG spectra were analyzed in 1 Hz bins. Data were analyzed using two-way repeated-measures ANOVA.
For both compounds, there was an increase in the time spent in wake, a decrease in the time spent in non-REM sleep, and no change in the time spent in REM sleep relative to vehicle treated animals.

Compound	number of wake and non-REM sleep bouts	wake bout duration	wake promotion	time spent in REM sleep	time spent in non-REM sleep	time spent in wake	normalized power in the 40-60 Hz range (EEG spectral analysis)
c1cn2cc(-c3ccc4c(c3)nc3n4CCN4CCCC[C@@H]4C3)ccc2n1 (single isomer, unassigned) [Compound 48]	decrease	increase	wake promoting	no change	decrease	increase	increase
c1cn2cc(-c3ccc4c(c3)nc3n4CCCN(C4CCC4)CC3)ccc2n1 [Compound 59, 3-cyclobutyl-10-(imidazo[1,2-a]pyridin-6-yl)-1,2,3,4,5,6-hexahydrobenzo[4,5]imidazo[1,2-a][1,5]diazocine]	decrease	increase	wake promoting	no change	decrease	increase	increase

Source: US20120172350A1, “HISTAMINE H3 INVERSE AGONISTS AND ANTAGONISTS AND METHODS OF USE THEREOF” (SUNOVION PHARMACEUTICALS INC., priority 2009, published 2012)
